The results in this text go back to ChEMBL document CHEMBL2346515, “Discovery of 4-alkylamino-7-aryl-3-cyanoquinoline LRRK2 kinase inhibitors” (Bioorg Med Chem Lett, 2013).

Data set [1] addresses PI3-kinase p110-alpha/p85-alpha (Homo sapiens) (UniProt P27986+P42336). The experiment in a line: Inhibition of PIK3CA/PIK3R1 (unknown origin) at 10 uM by single point assay. It is filed as protein-complex assay.
Data set [2] deals with Tyrosine-protein kinase Lck (Homo sapiens) (UniProt P06239). The experiment in a line: Inhibition of LCK (unknown origin) at 10 uM by single point assay.
The target in data set [3] is Receptor-interacting serine/threonine-protein kinase 2 (Homo sapiens) (UniProt O43353). The experiment in a line: Inhibition of RIPK2 (unknown origin) at 10 uM by single point assay.
Data set [4] deals with cAMP-dependent protein kinase catalytic subunit alpha (Homo sapiens) (UniProt P17612). Description: Inhibition of PRKACA (unknown origin) at 10 uM by single point assay.
In data set [5] the target is Tyrosine-protein kinase SYK (Homo sapiens) (UniProt P43405). The experiment in a line: Inhibition of SYK (unknown origin) at 10 uM by single point assay.
In data set [6] the target is T1, Interleukin-1 receptor-associated kinase 4 (Homo sapiens) (UniProt Q9NWZ3).
T1 sequence (whole entry): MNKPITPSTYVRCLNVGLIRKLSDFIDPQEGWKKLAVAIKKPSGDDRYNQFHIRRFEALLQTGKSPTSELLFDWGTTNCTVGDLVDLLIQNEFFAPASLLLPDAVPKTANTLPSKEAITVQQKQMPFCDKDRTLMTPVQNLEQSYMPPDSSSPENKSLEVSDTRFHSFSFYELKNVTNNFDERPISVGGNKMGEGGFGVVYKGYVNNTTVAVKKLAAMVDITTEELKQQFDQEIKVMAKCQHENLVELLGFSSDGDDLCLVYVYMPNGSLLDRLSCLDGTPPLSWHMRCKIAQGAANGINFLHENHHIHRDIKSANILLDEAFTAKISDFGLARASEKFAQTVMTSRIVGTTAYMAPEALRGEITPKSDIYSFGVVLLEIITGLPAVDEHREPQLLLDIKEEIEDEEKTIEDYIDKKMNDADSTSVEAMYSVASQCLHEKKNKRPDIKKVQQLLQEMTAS
Description: Inhibition of IRAK4 (unknown origin) at 10 uM by single point assay.

Data set [7] deals with Dual specificity tyrosine-phosphorylation-regulated kinase 1B (Homo sapiens) (UniProt Q9Y463). Description: Inhibition of DYRK1B (unknown origin) at 10 uM by single point assay.
In data set [8] the target is Leucine-rich repeat serine/threonine-protein kinase 2 (Homo sapiens, UniProt Q5S007). As to conditions: 10 uM.
Description: Inhibition of LRRK2 (unknown origin) at 10 uM by single point assay
Data set [9] has as its target T2, Serine/threonine-protein kinase Chk1 (Homo sapiens) (UniProt O14757).
T2 sequence (whole entry): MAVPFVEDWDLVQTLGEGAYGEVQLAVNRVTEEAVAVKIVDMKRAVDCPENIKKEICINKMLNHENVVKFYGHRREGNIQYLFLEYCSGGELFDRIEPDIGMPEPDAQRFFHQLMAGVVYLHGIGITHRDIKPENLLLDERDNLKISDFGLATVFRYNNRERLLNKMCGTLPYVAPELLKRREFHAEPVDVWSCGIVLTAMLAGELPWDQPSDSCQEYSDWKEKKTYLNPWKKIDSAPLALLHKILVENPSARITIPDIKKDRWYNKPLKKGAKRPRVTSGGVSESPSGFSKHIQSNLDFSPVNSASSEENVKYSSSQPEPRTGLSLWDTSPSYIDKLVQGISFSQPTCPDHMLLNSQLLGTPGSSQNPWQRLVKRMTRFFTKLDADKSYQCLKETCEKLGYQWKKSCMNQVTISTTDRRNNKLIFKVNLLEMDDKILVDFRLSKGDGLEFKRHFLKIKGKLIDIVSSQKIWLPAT
Description: Inhibition of CHK1 (unknown origin) at 10 uM by single point assay.

In data set [10] the target is Calcium/calmodulin-dependent protein kinase type II subunit alpha (Homo sapiens) (UniProt Q9UQM7). Description: Inhibition of CAMK2alpha (unknown origin) at 10 uM by single point assay.
For data set [11], the target named is Tyrosine-protein kinase ABL1 (Homo sapiens) (UniProt P00519). The experiment in a line: Inhibition of ABL1 (unknown origin) at 10 uM by single point assay.
The target of data set [12] is T3, Serine/threonine-protein kinase 3 (Homo sapiens) (UniProt Q13188).
T3 sequence (whole entry): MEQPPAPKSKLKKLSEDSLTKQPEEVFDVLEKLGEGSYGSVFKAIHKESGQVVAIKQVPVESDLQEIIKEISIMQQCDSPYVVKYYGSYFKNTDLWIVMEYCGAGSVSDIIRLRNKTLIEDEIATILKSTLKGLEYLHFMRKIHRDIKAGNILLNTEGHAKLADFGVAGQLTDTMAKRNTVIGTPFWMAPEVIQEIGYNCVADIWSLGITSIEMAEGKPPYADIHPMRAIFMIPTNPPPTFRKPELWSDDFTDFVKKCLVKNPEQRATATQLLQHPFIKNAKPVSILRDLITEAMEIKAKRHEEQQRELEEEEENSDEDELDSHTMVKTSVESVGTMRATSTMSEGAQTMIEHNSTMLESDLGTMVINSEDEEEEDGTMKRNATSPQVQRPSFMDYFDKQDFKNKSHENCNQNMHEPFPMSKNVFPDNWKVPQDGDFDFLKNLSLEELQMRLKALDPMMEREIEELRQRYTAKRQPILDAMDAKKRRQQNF
Description: Inhibition of STK3 (unknown origin) at 10 uM by single point assay.

Data set [13] addresses Platelet-derived growth factor receptor alpha (Homo sapiens) (UniProt P16234). Description: Inhibition of PDGFRalpha (unknown origin) at 10 uM by single point assay.
The target of data set [14] is RAC-alpha serine/threonine-protein kinase (Homo sapiens) (UniProt P31749). Description: Inhibition of AKT1 (unknown origin) at 10 uM by single point assay.
Data set [15] deals with Serine/threonine-protein kinase PAK 4 (Homo sapiens) (UniProt O96013). The experiment in a line: Inhibition of PAK4 (unknown origin) at 10 uM by single point assay.
Data set [16] concerns the target Receptor-type tyrosine-protein kinase FLT3 (Homo sapiens) (UniProt P36888). The experiment in a line: Inhibition of FLT3 (unknown origin) at 10 uM by single point assay.
Data set [17] deals with Cyclin-dependent kinase 2/cyclin A (Homo sapiens) (UniProt P24941+P20248+P78396). The experiment in a line: Inhibition of CDK2/cyclin A (unknown origin) at 10 uM by single point assay. It is filed as protein-complex assay.
Data set [18] addresses Glycogen synthase kinase-3 beta (Homo sapiens) (UniProt P49841). The experiment in a line: Inhibition of GSK3beta (unknown origin) at 10 uM by single point assay.
Data set [19] concerns Plasma. The experiment in a line: Plasma concentration in mouse expressing mouse LRRK2 G2019S mutant at 100 mg/kg, po. It is filed as ADME, organism-based. More on the design: dose 100 mg/kg, route oral. The conditions noted are these: in vivo.
For data set [20], the system named is Brain. Description: Drug uptake in brain of mouse expressing mouse LRRK2 G2019S mutant at 100 mg/kg, po. It is filed as ADME, organism-based. Also on record: dose 100 mg/kg, route oral. The conditions noted are these: in vivo.
In data set [21] the target is Mitogen-activated protein kinase 10 (Homo sapiens) (UniProt P53779). The experiment in a line: Inhibition of MAPK10 (unknown origin) at 1 uM by single point assay.
Data set [22] in a line: Ratio of drug uptake in brain to plasma of mouse expressing mouse LRRK2 G2019S mutant at 100 mg/kg, po. Also on record: dose 100 mg/kg, route oral. As to conditions: read-out: BPR. It is filed as ADME, organism-based.
Data set [23] can be described thus: Ratio of drug uptake in brain to plasma of mouse expressing mouse LRRK2 G2019S mutant at 30 mg/kg, po. It is filed as ADME, organism-based. More on the design: dose 30 mg/kg, route oral. The conditions noted are these: read-out: BPR.

Chain of Tyrosine-protein kinase ABL1 (Homo sapiens) (P00519 whole entry): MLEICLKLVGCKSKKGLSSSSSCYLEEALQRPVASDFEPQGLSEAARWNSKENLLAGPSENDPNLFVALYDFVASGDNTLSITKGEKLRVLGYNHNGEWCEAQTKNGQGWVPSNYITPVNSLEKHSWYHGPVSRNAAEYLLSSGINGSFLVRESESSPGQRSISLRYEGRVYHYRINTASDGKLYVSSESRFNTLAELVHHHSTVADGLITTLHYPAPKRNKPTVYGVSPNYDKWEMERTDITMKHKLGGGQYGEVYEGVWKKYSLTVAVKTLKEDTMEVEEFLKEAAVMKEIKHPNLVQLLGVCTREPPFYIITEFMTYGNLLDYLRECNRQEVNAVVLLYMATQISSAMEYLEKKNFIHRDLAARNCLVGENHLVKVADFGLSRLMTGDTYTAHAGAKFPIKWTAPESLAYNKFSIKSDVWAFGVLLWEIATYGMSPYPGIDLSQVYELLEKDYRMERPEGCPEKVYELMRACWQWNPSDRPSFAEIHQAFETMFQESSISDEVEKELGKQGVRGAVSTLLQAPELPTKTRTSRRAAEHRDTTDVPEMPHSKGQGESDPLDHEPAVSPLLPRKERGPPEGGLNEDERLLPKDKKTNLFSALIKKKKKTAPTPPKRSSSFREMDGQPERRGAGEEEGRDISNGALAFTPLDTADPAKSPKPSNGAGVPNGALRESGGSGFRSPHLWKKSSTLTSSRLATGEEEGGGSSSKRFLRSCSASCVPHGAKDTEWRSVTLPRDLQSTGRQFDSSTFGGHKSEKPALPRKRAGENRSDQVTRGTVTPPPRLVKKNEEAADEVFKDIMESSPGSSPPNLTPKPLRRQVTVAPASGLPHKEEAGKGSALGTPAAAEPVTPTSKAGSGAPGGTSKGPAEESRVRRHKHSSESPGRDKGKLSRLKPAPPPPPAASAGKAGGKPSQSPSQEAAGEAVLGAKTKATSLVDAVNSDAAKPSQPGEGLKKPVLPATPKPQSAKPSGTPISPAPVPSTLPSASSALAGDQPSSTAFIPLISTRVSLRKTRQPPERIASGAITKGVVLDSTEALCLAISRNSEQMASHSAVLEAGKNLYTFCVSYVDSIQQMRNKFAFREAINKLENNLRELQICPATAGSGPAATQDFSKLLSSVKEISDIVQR
Chain of Mitogen-activated protein kinase 10 (Homo sapiens) (P53779 whole entry): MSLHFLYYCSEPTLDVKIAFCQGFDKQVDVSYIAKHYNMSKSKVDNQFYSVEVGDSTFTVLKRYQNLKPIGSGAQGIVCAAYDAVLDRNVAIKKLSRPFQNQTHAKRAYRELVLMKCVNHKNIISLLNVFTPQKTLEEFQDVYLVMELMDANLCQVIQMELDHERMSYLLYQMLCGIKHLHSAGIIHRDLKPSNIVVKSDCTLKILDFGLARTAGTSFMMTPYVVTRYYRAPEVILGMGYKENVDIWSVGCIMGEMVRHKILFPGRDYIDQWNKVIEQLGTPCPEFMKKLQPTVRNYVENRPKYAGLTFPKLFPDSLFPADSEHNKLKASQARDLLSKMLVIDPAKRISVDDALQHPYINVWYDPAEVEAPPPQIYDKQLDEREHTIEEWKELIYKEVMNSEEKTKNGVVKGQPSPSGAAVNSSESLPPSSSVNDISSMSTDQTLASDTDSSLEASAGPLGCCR
Chain of Leucine-rich repeat serine/threonine-protein kinase 2 (Q5S007 whole entry): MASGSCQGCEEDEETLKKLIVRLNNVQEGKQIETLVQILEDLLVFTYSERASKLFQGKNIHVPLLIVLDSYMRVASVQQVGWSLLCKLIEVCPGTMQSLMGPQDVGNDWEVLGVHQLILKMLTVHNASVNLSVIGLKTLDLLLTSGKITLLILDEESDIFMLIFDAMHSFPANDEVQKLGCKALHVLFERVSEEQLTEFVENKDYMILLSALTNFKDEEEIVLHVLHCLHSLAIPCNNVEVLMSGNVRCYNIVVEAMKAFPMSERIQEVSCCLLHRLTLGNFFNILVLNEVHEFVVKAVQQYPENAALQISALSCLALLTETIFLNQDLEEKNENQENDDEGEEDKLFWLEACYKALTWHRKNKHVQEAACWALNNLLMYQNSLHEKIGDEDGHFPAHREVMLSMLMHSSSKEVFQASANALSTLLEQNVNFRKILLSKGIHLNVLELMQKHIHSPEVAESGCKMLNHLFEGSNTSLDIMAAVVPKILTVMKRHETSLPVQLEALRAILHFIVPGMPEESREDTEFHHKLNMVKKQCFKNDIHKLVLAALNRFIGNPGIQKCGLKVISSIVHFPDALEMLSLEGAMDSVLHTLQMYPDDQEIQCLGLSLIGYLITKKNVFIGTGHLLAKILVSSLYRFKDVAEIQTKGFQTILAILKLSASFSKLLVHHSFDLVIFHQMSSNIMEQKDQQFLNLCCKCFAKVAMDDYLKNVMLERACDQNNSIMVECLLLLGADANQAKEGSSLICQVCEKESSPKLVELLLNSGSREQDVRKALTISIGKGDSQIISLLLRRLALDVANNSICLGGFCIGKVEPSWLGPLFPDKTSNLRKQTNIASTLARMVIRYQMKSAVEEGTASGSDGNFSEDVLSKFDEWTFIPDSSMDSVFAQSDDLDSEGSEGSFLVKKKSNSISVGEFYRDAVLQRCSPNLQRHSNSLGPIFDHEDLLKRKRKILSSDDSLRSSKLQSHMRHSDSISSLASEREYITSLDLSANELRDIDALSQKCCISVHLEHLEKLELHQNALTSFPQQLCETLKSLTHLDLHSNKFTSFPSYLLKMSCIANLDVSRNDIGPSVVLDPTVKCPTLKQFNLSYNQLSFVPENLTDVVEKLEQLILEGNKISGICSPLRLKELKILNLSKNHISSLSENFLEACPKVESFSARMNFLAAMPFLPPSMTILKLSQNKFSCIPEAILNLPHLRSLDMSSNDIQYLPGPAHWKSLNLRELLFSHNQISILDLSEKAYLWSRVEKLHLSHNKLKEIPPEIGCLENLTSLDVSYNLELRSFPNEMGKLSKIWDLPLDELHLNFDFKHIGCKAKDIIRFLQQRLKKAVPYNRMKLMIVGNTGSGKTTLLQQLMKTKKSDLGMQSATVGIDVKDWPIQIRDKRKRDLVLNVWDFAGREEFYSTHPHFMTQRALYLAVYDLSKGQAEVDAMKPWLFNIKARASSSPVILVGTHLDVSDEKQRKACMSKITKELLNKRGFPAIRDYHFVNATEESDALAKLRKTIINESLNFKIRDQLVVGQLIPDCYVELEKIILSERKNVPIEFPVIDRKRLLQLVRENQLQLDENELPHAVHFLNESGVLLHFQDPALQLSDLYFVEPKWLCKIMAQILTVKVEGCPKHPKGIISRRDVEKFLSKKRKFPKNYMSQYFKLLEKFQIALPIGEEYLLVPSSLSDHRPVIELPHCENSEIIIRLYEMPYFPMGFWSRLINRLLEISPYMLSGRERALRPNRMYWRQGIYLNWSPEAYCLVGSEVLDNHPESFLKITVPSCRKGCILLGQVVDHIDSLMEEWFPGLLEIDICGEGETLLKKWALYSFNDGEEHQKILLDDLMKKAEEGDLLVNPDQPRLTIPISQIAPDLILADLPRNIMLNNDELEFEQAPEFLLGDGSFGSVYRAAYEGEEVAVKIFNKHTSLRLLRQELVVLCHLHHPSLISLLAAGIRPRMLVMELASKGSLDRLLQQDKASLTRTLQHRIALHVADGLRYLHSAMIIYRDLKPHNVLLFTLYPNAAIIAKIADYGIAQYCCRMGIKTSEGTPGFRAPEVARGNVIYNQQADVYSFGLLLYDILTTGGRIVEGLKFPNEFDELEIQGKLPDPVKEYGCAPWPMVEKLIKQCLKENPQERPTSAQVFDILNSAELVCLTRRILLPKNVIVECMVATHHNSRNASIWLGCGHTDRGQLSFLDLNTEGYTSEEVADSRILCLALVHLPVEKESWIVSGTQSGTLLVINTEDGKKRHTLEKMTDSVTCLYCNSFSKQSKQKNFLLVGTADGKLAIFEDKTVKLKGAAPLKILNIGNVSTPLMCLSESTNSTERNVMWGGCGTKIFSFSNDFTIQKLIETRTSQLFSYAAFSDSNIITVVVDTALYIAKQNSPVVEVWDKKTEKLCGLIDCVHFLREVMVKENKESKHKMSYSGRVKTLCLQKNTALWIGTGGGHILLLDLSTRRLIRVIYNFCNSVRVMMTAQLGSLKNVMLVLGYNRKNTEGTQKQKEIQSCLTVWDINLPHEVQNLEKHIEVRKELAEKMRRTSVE
Chain of Dual specificity tyrosine-phosphorylation-regulated kinase 1B (Homo sapiens) (Q9Y463 whole entry, looked up): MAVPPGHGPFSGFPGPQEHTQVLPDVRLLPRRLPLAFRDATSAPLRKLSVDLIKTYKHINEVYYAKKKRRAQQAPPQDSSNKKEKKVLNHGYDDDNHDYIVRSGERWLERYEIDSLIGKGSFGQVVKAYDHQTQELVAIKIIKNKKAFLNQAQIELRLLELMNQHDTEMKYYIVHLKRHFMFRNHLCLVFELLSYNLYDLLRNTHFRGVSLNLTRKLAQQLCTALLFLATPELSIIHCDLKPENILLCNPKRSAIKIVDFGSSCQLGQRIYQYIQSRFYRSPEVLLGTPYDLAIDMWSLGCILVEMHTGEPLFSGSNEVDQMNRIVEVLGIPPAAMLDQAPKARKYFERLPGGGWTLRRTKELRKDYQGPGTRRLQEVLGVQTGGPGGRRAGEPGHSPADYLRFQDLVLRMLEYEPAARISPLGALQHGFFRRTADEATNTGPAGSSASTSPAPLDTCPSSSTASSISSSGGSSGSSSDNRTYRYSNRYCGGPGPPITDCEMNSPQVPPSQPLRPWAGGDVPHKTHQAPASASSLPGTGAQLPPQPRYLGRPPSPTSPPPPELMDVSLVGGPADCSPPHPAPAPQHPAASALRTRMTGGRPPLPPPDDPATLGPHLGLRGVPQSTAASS

With `C[C@@H](Nc1c(C#N)cnc2cc(-c3ccc(-n4ccoc4=O)cc3)ccc12)C1CC1`, the inhibition – broadly, the change of the read-out against control, counted positive when it falls – in data set [1] was 13%; in [2], 18%; in data set [3], 56%; in data set [4], -3%; in data set [5] it was 71%; in [6], 10%. Also, the inhibition was 24% in data set [7]; 81% in [8]; 31% in [9]; 30% in data set [10]; 30% in [11]; 18% in data set [12]. Further, the inhibition in [13] is 5%; in data set [14] it was -2%; in data set [15], 19%; in [16] it was 44%; in data set [17], 0%; in [18], 1%.
For `CC(C)Nc1c(C#N)cnc2cc(-c3cnn(C)c3)ccc12`, the Cp in data set [19] was 31.8 ng/mL. Moreover, in data set [20], the Drug uptake came out at 81.1 ng/mL. In addition, the inhibition in data set [21] was 4%. For the same molecule, the Kp was found to be 2.1 in data set [22] and 1.2 in [23].
